{"source": "patent US11008325B2", "about": "“Inhibitors of cancer invasion, attachment, and/or metastasis” (VIRGINIA COMMONWEALTH UNIVERSITY, priority 2016, dated 2021)", "key": {"MMP-2 and MMP-9": {"system": "MMP-2 and MMP-9", "assay": "western blotting and gelatin zymography of conditioned media", "format": "cell-based", "conditions": "50 μM, 24 h"}, "[1]": {"system": "HCC-driven tumor xenograft", "assay": "HCC tumor xenograft, alone or with sorafenib", "format": "in vivo, athymic nude mice", "conditions": "in combination with sorafenib, I.P.", "protocol": "FIGS. 48A-48C. Biological effects of PDZ1i in vivo in melanoma, HCC and PC. FIG. 48A) Compounds were administered I.P. 6 times within first two weeks following inoculation (I.V. injection) of B16 cells in C57BL/6 mice to evaluate the anti-metastatic efficacy. FIG. 48B) HCC-driven tumor xenograft was established in athymic nude mice. Compound alone or in combination with Sorafenib were given through I.P. Tumor volumes were considered as an end point of this study. FIG. 48C) Hi-Myc, a mouse model for spontaneous prostate cancer either received the compound or vehicle at the age of 8 weeks (immediate after onset of disease) for total 9 injections (3/week). After 16 weeks from the first injection, prostate were collected and pathologically evaluated. Representative photomicrographs (Left panel) and H and E stained slides (Right panel) from prostate were presented."}, "prostate adenocarcinoma": {"system": "prostate adenocarcinoma", "assay": "Hi-myc spontaneous prostate cancer transgenic model", "format": "in vivo, Hi-myc mice", "conditions": "30 mg/kg I.P., 9 times for the first three weeks", "protocol": "(§1) FIG. 19A-19F. PDZ1i suppresses prostate cancer metastasis and tumor progression. FIG. 19A) Survival data for athymic nude mice in which DMSO or PDZ1i pre-treated ARCaPM cells were injected. FIG. 19B) Survival data for athymic nude mice which were injected with (n=5, each group) ARCaPM-Luc (1×10^6 cells in 100 μl saline) through an intracardiac route. Mice received either vehicle or PDZ1i every alternative day (9 injections during the first […]) and maintained until they needed to be euthanized. FIG. 19C) Survival data for C57BL/6 mice injected through the intracardiac route with RM1-Luc. Vehicle or PDZ1i was administered through intraperitoneal injection every alternate day (total 3 injections during the first week). Survival curves were generated using 6 control vehicle-treated and 5 PDZ1i-treated. Kaplan—Meier survival curves were prepared using Graph Pad software. […] Graphical representation of the average prostate weights from control and treated groups. FIG. 19E and FIG. 19F) Photomicrographs representing the histological changes in prostate sections obtained from 6-month old Hi-Myc mice receiving either vehicle (FIG. 19E) or PDZ1i (FIG. 19F). To evaluate potential therapeutic efficacy of PDZ1i four sets of in vivo experiments were conducted. […]"}, "[2]": {"target": "MDA-9/Syntenin PDZ2 only domain (Homo sapiens, UniProt O00560)", "sequence (O00560 198-273 limits assumed)": "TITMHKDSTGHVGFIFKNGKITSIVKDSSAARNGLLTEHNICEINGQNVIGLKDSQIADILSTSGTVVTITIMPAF", "assay": "NMR [15N,1H] HSQC binding, counter domain", "conditions": "up to 100 μM compound, 20 μM protein", "protocol": "FIG. 52. Left panel, Docked structure of compound 113B7 on the surface of MDA-9/Syntenin. The docked structure is supported by NMR chemical shift mapping data. The titration (see later in FIG. 55 for chemical shift mapping and titration) allows for the calculation of an upper limit for the dissociation constant of the complex, Kd<10 μM. […] The [^15N,^1FI]-HSQC spectra of MDA-9/Syntenin PDZ2 only domain are reported in the top right panel (apo at 20 μM; in presence of 100 μM 113B7). In the bottom right panel can be seen the spectra of the PDZ domain from X11/mint scaffold protein (33% identity with PDZ1) are reported in absence (20 μM protein) and in presence of 100 μM 113B7.\nBased on these studies and NMR guided initial docking calculations, >50 bi-dentate compounds were synthesized and tested, leading to compound 113B7 (FIG. 52). […] Moreover, as a way to further address specificity of our ligands, we also tested the most promising compounds against two closely related domains to the PDZs of MDA-9/Syntenin, such as the PDZ tandem protein Harmonin (36% identity to PDZ2 of MDA-9/Syntenin and 31% to PDZ1 of MDA-9/syntenin) or PDZ domain from X11/mint scaffold protein (33% identity with PDZ1), and no significant binding to these counter-screen proteins was observed (FIG. 52)."}, "RM1-Luc cells": {"system": "RM1-Luc cells", "assay": "RM1-Luc intracardiac metastasis model", "format": "in vivo, C57BL/6 mice", "conditions": "I.P., 3 injections/first week", "protocol": "as §1"}}, "note": "“Also recorded” adds a separate entry of the source."}
{"smiles": "Cc1cc(NC(=O)c2nc3[nH]c4c(c(=O)n3n2)CCC4)c(C)cc1NC(=O)CCc1nnc(-c2ccccc2)o1", "note": "[113B7, N-(2,5-dimethyl-4-(3-(5-phenyl-1,3,4-oxadiazol-2-yl)propanamido)phenyl)-8-oxo-5,6,7,8-tetrahydro-4H-cyclopenta[d][1,2,4]triazolo[1,5-a]pyrimidine-2-carboxamide]", "values": [{"measurement": "MMP-2 and MMP-9 protein and activity level", "setting": "MMP-2 and MMP-9", "result": "downregulates"}, {"measurement": "HCC tumor growth", "setting": "[1]", "result": "synergistically inhibited HCC growth; also recorded: inhibit HCC tumor growth"}, {"measurement": "size and weight of prostates", "setting": "prostate adenocarcinoma", "result": "significantly less"}, {"measurement": "binding to PDZ2 domain", "setting": "[2]", "result": "does not bind appreciably; also recorded: does not appreciably bind; also recorded: do not significantly bind"}, {"measurement": "tumor burden in the lungs", "setting": "RM1-Luc cells", "result": "significantly reduced the tumor burden in the lungs"}]}
